Drawing on US20040082635A1, “Fused cyclic compounds and medicinal use thereof” (priority 2001, published 2004), this text covers IC50 for 29 compounds.

Counter-ions that a name gives are not always drawn. Bounds are passed on as bounds.

In one test the target is T1, HCV polymerase (Hepatitis C virus genotype 1b, UniProt P26663).
T1 construct: a region encoding NS5B (591 amino acids; J Virol 1991 Mar, 65(3), 1105-13) was amplified by PCR; 6 His (N); made in house; host or cells: Escherichia coli
T1 sequence (P26663 2420-3010): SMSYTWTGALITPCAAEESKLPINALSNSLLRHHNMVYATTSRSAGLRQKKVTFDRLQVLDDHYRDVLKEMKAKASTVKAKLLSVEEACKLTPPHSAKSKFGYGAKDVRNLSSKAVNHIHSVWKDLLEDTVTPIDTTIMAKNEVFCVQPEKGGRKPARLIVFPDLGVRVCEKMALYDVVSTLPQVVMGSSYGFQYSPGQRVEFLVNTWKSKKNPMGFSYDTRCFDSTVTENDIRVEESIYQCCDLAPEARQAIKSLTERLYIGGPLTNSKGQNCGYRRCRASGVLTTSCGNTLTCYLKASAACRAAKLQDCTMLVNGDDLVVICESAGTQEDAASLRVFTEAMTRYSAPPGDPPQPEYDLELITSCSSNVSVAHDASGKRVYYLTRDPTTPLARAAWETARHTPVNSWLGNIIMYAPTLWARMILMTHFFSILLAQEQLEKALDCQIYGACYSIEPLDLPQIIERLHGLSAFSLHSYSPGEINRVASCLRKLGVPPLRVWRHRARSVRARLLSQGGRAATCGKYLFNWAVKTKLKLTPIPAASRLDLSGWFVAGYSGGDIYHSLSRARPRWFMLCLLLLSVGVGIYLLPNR
Kind of test: biochemical. Conditions: HCV polymerase inhibitory activity IC50.
In turn, `CN(C)C(=O)c1ccc(-c2ccc(Cl)cc2)c(COc2ccc(-c3nc4cc(C(=O)O)ccc4n3C3CCCCC3)cc2)c1` [Example 265, 2-{4-[2-(4-chlorophenyl)-5-dimethylcarbamoylbenzyloxy]phenyl}-1-cyclohexylbenzimidazole-5-carboxylic acid hydrochloride] gave a half-inhibitory concentration (IC50) of 14 nM.

Staying with this test, now noted: read-out: HCV polymerase inhibitory activity IC50.
In the case of `O=C(O)c1ccc2c(c1)nc(-c1ccc(COc3ccccc3-c3ccccc3)s1)n2C1CCCCC1` [Example 252, 2-[2-(2-biphenylyloxymethyl)-5-thienyl]-1-cyclohexylbenzimidazole-5-carboxylic acid], the concentration for half-maximal inhibition (IC50) is 320 nM. The same measure, in the same setting: the figure for `O=C(O)c1ccc2c(c1)nc(-c1ccc(COc3ccccc3-c3ccccc3)o1)n2C1CCCCC1` [Example 253, 2-[2-(2-biphenylyloxymethyl)-5-furyl]-1-cyclohexylbenzimidazole-5-carboxylic acid] is 650 nM. Still for that read-out and setting: the result for `O=C(O)c1ccc2c(c1)nc(-c1ccc(OCc3sc(CO)nc3-c3ccc(F)cc3)cc1)n2C1CCCCC1` [Example 254, 1-cyclohexyl-2-{4-[{4-(4-fluorophenyl)-2-hydroxymethyl-5-thiazolyl}methoxy]phenyl}benzimidazole-5-carboxylic acid] reads 38 nM; that for `Cc1nc(-c2ccc(C(=O)O)cc2)c(COc2ccc(-c3nc4cc(C(=O)O)ccc4n3C3CCCCC3)cc2)s1` [Example 255, 1-cyclohexyl-2-{4-[{4-(4-carboxyphenyl)-2-methyl-5-thiazolyl}-methoxy]phenyl}benzimidazole-5-carboxylic acid hydrochloride], 38 nM. On the same count and under the same terms, the result for `O=C(O)c1ccc2c(c1)nc(-c1ccc(OCc3ccc(F)cc3C(=O)c3cccc(F)c3)cc1F)n2C1CCCCC1` [Example 256, 1-cyclohexyl-2-{2-fluoro-4-[4-fluoro-2-(3-fluorobenzoyl)benzyloxy]phenyl}benzimidazole-5-carboxylic acid] reads 79 nM; that for `COc1ccc(-c2ccc(Cl)cc2)c(COc2ccc(-c3nc4cc(S(=O)(=O)O)ccc4n3C3CCCCC3)cc2)c1` [Example 257, 2-{4-[2-(4-chlorophenyl)-5-methoxybenzyloxy]phenyl}-1-cyclohexylbenzimidazole-5-sulfonic acid], 74 nM. On to `CN(C)C(=O)c1cc(OCc2ccncc2)cc(Oc2ccc(-c3nc4cc(C(=O)O)ccc4n3C3CCCCC3)cc2)c1` [Example 259, 1-cyclohexyl-2-{4-[3-dimethylcarbamoyl-5-(4-pyridylmethoxy)-phenoxy]phenyl}benzimidazole-5-carboxylic acid dihydrochloride], for which the half-inhibitory concentration (IC50) was 100 nM. Same read-out and setting: the figure for `O=C(O)c1cc(OCc2ccncc2)cc(Oc2ccc(-c3nc4cc(C(=O)O)ccc4n3C3CCCCC3)cc2)c1` [Example 260, 1-cyclohexyl-2-{4-[3-carboxy-5-(4-pyridylmethoxy)phenoxy]-phenyl}benzimidazole-5-carboxylic acid dihydrochloride] is 270 nM. Regarding `O=C(O)c1ccc(-c2ncccc2COc2ccc(-c3nc4cc(C(=O)O)ccc4n3C3CCCCC3)cc2)cc1` [Example 263, 2-{4-[{2-(4-carboxyphenyl)-3-pyridyl}methoxy]phenyl}-1-cyclohexylbenzimidazole-5-carboxylic acid], the IC50 is 35 nM. Turning to `COc1ccc(-c2ccc(Cl)cc2)c(COc2ccc(-c3nc4cc(C(=O)O)ccc4n3C3CCSCC3)cc2)c1` [Example 264, 2-{4-[2-(4-chlorophenyl)-5-methoxybenzyloxy]phenyl}-1-(4-tetrahydrothiopyranyl)benzimidazole-5-carboxylic acid], the concentration for half-maximal inhibition (IC50) was below 10 nM. Same read-out and setting: the figure for `CN(C)C(=O)c1ccc(-c2ccc(C(F)(F)F)cc2)c(COc2ccc(-c3nc4cc(C(=O)O)ccc4n3C3CCCCC3)cc2)c1` [Example 266, 1-cyclohexyl-2-{4-[3-dimethylcarbamoyl-6-(4-trifluoromethylphenyl)benzyloxy]phenyl}benzimidazole-5-carboxylic acid hydrochloride] is 18 nM; for `CSc1ccc(-c2ccc(C(=O)N(C)C)cc2COc2ccc(-c3nc4cc(C(=O)O)ccc4n3C3CCCCC3)cc2)cc1` [Example 267, 1-cyclohexyl-2-{4-[3-dimethylcarbamoyl-6-(4-methylthiophenyl)-benzyloxy]phenyl}benzimidazole-5-carboxylic acid hydrochloride] it is 14 nM; for `CN(C)C(=O)c1ccc(-c2ccc(Cl)cc2)c(COc2ccc(-c3nc4cc(C(=O)O)ccc4n3C3CCCCC3)c(F)c2)c1` [Example 269, 2-{4-[2-(4-chlorophenyl)-5-dimethylcarbamoylbenzyloxy]-2-fluorophenyl}-1-cyclohexylbenzimidazole-5-carboxylic acid hydrochloride] it is 13 nM. `NC(=O)c1ccc(-c2ccc(Cl)cc2)c(COc2ccc(-c3nc4cc(C(=O)O)ccc4n3C3CCCCC3)c(F)c2)c1` [Example 270, 2-{4-[3-carbamoyl-6-(4-chlorophenyl)benzyloxy]-2-fluorophenyl}-1cyclohexylbenzimidazole-5-carboxylic acid hydrochloride]: the IC50 came to 12 nM. Take `CN(C)C(=O)c1ccc(-c2ccc(S(C)(=O)=O)cc2)c(COc2ccc(-c3nc4cc(C(=O)O)ccc4n3C3CCCCC3)cc2)c1` [Example 271, 2-{4-[3-dimethylcarbamoyl-6-(4-methanesulfonylphenyl)benzyloxy]-phenyl}-1-cyclohexylbenzimidazole-5-carboxylic acid hydrochloride]: the half-inhibitory concentration (IC50) worked out at 24 nM. `CN(C)C(=O)c1ccc(-c2cccnc2)c(COc2ccc(-c3nc4cc(C(=O)O)ccc4n3C3CCCCC3)cc2)c1` [Example 272, 2-{4-[3-dimethylcarbamoyl-6-(3-pyridyl)benzyloxy]phenyl}-1-cyclohexylbenzimidazole-5-carboxylic acid dihydrochloride]: the IC50 came to 66 nM.

In the case of `CN(C)C(=O)c1ccc(-c2ccc(C(=O)N(C)C)cc2COc2ccc(-c3nc4cc(C(=O)O)ccc4n3C3CCCCC3)cc2)cc1` [Example 273, 2-{4-[3-dimethylcarbamoyl-6-(4-dimethylcarbamoylphenyl)-benzyloxy]phenyl}-1-cyclohexylbenzimidazole-5-carboxylic acid], the IC50 came out at 41 nM.

Consider `COc1ccc(-c2ccc(Cl)cc2)c(COc2ccc(-c3nc4cc(C(=O)O)ccc4n3C3CCSCC3)c(F)c2)c1` [Example 276, 2-{4-[2-(4-chlorophenyl)-5-methoxybenzyloxy]-2-fluorophenyl}-1-(4-tetrahydrothiopyranyl)benzimidazole-5-carboxylic acid], for which the IC50 was 23 nM. In the case of `CN(C)S(=O)(=O)c1ccc(-c2ccc(Cl)cc2)c(COc2ccc(-c3nc4cc(C(=O)O)ccc4n3C3CCCCC3)cc2)c1` [Example 279, 2-{4-[2-(4-chlorophenyl)-5-dimethylsulfamoylbenzyloxy]phenyl}-1-cyclohexylbenzimidazole-5-carboxylic acid hydrochloride], the IC50 is 17 nM. The same measure, in the same setting: the figure for `CS(=O)(=O)c1ccc(-c2ccc(Cl)cc2)c(COc2ccc(-c3nc4cc(C(=O)O)ccc4n3C3CCCCC3)cc2)c1` [Example 280, 2-{4-[2-(4-chlorophenyl)-5-methanesulfonylbenzyloxy]phenyl}-1-cyclohexylbenzimidazole-5-carboxylic acid] is 16 nM.

With `CN(C)c1ccc(-c2ccc(Cl)cc2)c(COc2ccc(-c3nc4cc(C(=O)O)ccc4n3C3CCCCC3)cc2)c1` [Example 282, 2-{4-[2-(4-chlorophenyl)-5-dimethylaminobenzyloxy]phenyl}-1-cyclohexylbenzimidazole-5-carboxylic acid], the IC50 amounted to 19 nM. In the case of `CS(=O)(=O)Nc1ccc(-c2ccc(Cl)cc2)c(COc2ccc(-c3nc4cc(C(=O)O)ccc4n3C3CCCCC3)cc2)c1` [Example 283, 2-{4-[2-(4-chlorophenyl)-5-methanesulfonylaminobenzyloxy]phenyl}-1-cyclohexylbenzimidazole-5-carboxylic acid], the IC50 came out at 14 nM. Take `CCN(CC)C(=O)c1ccc(-c2ccc(Cl)cc2)c(COc2ccc(-c3nc4cc(C(=O)O)ccc4n3C3CCCCC3)c(F)c2)c1` [Example 284, 2-{4-[2-(4-chlorophenyl)-5-diethylcarbamoylbenzyloxy]-2-fluorophenyl}-1-cyclohexylbenzimidazole-5-carboxylic acid]: the IC50 is 14 nM.

As for `O=C(O)c1ccc2c(c1)nc(-c1ccc(OCc3cc(C(=O)N4CCCCC4)ccc3-c3ccc(Cl)cc3)cc1F)n2C1CCCCC1` [Example 286, 2-{4-[2-(4-chlorophenyl)-5-piperidinocarbonylbenzyloxy]-2-fluorophenyl}-1-cyclohexylbenzimidazole-5-carboxylic acid], the IC50 came to 14 nM. Turning to `O=C(O)c1ccc2c(c1)nc(-c1ccc(OCc3cc(C(=O)N4CCCC4)ccc3-c3ccc(Cl)cc3)cc1F)n2C1CCCCC1` [Example 287, 2-{4-[2-(4-chlorophenyl)-5-(1-pyrrolidinyl)carbonylbenzyloxy]-2-fluorophenyl}-1-cyclohexylbenzimidazole-5-carboxylic acid], the IC50 turned out to be 12 nM.

Take `O=C(O)c1ccc2c(c1)nc(-c1ccc(OCc3cc(C(=O)NCCO)ccc3-c3ccc(Cl)cc3)cc1F)n2C1CCCCC1` [Example 288, 2-{4-[2-(4-chlorophenyl)-5-(2-hydroxyethyl)carbamoylbenzyloxy]-2-fluorophenyl}-1-cyclohexylbenzimidazole-5-carboxylic acid]: the concentration for half-maximal inhibition (IC50) was 13 nM. Still for that read-out and setting: the figure for `O=C(O)c1ccc2c(c1)nc(-c1ccc(OCc3cc(C(=O)N4CCC(O)CC4)ccc3-c3ccc(Cl)cc3)cc1F)n2C1CCCCC1` [Example 289, 2-{4-[2-(4-chlorophenyl)-5-(4-hydroxypiperidino)-carbonylbenzyloxy]-2-fluorophenyl}-1-cyclohexylbenzimidazole-5-carboxylic acid] is below 10 nM; for `O=C(O)c1ccc2c(c1)nc(-c1ccc(OCc3cc(C(=O)N4CCOCC4)ccc3-c3ccc(Cl)cc3)cc1F)n2C1CCCCC1` [Example 290, 2-{4-[2-(4-chlorophenyl)-5-morpholinocarbonylbenzyloxy]-2-fluorophenyl}-1-cyclohexylbenzimidazole-5-carboxylic acid] it is 12 nM.
